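Following 48 hours of exposure in 96-well plates, responses at five concentrations were used to interpolate endpoints linearly. GI50 marks 50% less growth.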 The source made the active and inactive calls. Rule as the data show it: active = GI50 up to about 1.1 µM and inactive = higher.
Tests used:
Experiment in all cases: NCI anticancer screen, dose series, 48 h
CAKI-1 = tested on: CAKI-1
SW-620 = tested on: SW-620
HCT-15 = tested on: HCT-15
OVCAR-3 = tested on: OVCAR-3
M14 = tested on: M14
A498 = tested on: A498
COLO 205 = tested on: COLO 205
DU-145 = tested on: DU-145
OVCAR-5 = tested on: OVCAR-5
Malme-3M = tested on: Malme-3M
TK-10 = tested on: TK-10
SN12C = tested on: SN12C
KM12 = tested on: KM12
HL-60 = tested on: HL-60
HT-29 = tested on: HT-29
786-0 = tested on: 786-0
RXF 393 = tested on: RXF 393
SK-MEL-2 = tested on: SK-MEL-2
UACC-257 = tested on: UACC-257
SF-539 = tested on: SF-539

SMILES	GI50 (CAKI-1)	GI50 (SW-620)	GI50 (HCT-15) [µM]	GI50 (OVCAR-3)	GI50 (M14)	GI50 (A498)	GI50 (COLO 205)	GI50 (DU-145)	GI50 (OVCAR-5)	GI50 (Malme-3M)	GI50 (TK-10)	GI50 (SN12C)	GI50 (KM12)	GI50 (HL-60)	GI50 (HT-29)	GI50 (786-0)	GI50 (RXF 393)	GI50 (SK-MEL-2)	GI50 (UACC-257)	GI50 (SF-539)
S=C1NCN2CCN(CC2)CNC(=S)C(=S)NCN2CCN(CC2)CNC1=S	35.2 µM (inactive)	30.4 µM (inactive)	31.3	22 µM (inactive)	30.1 µM (inactive)	> 100 µM (inactive)	35.6 µM (inactive)	36.8 µM (inactive)	> 100 µM (inactive)	> 100 µM (inactive)	> 100 µM (inactive)	44.5 µM (inactive)	> 100 µM (inactive)	24.2 µM (inactive)	85.5 µM (inactive)	45.1 µM (inactive)	56 µM (inactive)	43.2 µM (inactive)	42.7 µM (inactive)	
COC(=O)c1c(C#N)c(N)nc2c1CCC2	> 100 µM (inactive)	> 100 µM (inactive)	> 100		> 100 µM (inactive)	> 100 µM (inactive)	> 100 µM (inactive)	> 100 µM (inactive)	> 100 µM (inactive)	> 100 µM (inactive)	> 100 µM (inactive)	> 100 µM (inactive)	> 100 µM (inactive)	> 100 µM (inactive)	> 100 µM (inactive)	> 100 µM (inactive)	> 100 µM (inactive)	> 100 µM (inactive)	> 100 µM (inactive)	
CCOC(=O)[C@@]12NN=N[C@@H]1[C@H]1CO[C@H](c3ccccc3)N1C2=O	11 µM (inactive)	7.67 µM (inactive)	6.62	8.53 µM (inactive)	6.18 µM (inactive)	10.6 µM (inactive)	10.2 µM (inactive)	13.8 µM (inactive)	14.2 µM (inactive)	13.3 µM (inactive)	16.8 µM (inactive)	11.1 µM (inactive)	13.1 µM (inactive)	17.3 µM (inactive)	13.5 µM (inactive)	5.97 µM (inactive)	3.58 µM (inactive)	7.21 µM (inactive)	6.44 µM (inactive)	11.2 µM (inactive)
C=C1CCC(O)C/C1=C/C=C1\CCCC2(C)C1CCC2C(C)CCCC(C)C (configuration not stated)	19.8 µM (inactive)	16.7 µM (inactive)	17.1	18.5 µM (inactive)	18 µM (inactive)	21.3 µM (inactive)	19 µM (inactive)	20.9 µM (inactive)	20.3 µM (inactive)	18 µM (inactive)	12.3 µM (inactive)	16.6 µM (inactive)	20.6 µM (inactive)	23.2 µM (inactive)	15.3 µM (inactive)	16.7 µM (inactive)	18.5 µM (inactive)	18.6 µM (inactive)	17 µM (inactive)	20.1 µM (inactive)
COc1ccc(-c2nc(N)c(C#N)c3c2CCSc2ccc(C)cc2-3)cc1OC	19.6 µM (inactive)	22.1 µM (inactive)	9.4	20.7 µM (inactive)	29.1 µM (inactive)	22.5 µM (inactive)	5.51 µM (inactive)	14.8 µM (inactive)	47.2 µM (inactive)	20.5 µM (inactive)	26.4 µM (inactive)	17.3 µM (inactive)	6.84 µM (inactive)	2.89 µM (inactive)	14.2 µM (inactive)	15 µM (inactive)	13.7 µM (inactive)	25.4 µM (inactive)	13.8 µM (inactive)	17.1 µM (inactive)
N#CC(C#N)/N=C/c1ccncc1	> 100 µM (inactive)	> 100 µM (inactive)	> 100	> 100 µM (inactive)	> 100 µM (inactive)	95.9 µM (inactive)	> 100 µM (inactive)	> 100 µM (inactive)	> 100 µM (inactive)	> 100 µM (inactive)	> 100 µM (inactive)	> 100 µM (inactive)	> 100 µM (inactive)	39 µM (inactive)	> 100 µM (inactive)	> 100 µM (inactive)	> 100 µM (inactive)	> 100 µM (inactive)	> 100 µM (inactive)	> 100 µM (inactive)
O[C@@H]1C=C[C@]23CCN(Cc4cc5c(cc42)OCO5)[C@@H]3C1	26.8 µM (inactive)	49 µM (inactive)	> 100	> 100 µM (inactive)	> 100 µM (inactive)	> 100 µM (inactive)	44.8 µM (inactive)	24.7 µM (inactive)	> 100 µM (inactive)	> 100 µM (inactive)	49.8 µM (inactive)	32.7 µM (inactive)	52.5 µM (inactive)	> 100 µM (inactive)	51.5 µM (inactive)	56.8 µM (inactive)	20.8 µM (inactive)	31.3 µM (inactive)	92 µM (inactive)	> 100 µM (inactive)

From ChEMBL document CHEMBL1201862, “PubChem BioAssay data set” (2004)
